US20240025919A1, “AZA-TETRACYCLIC OXAZEPINE COMPOUNDS AND USES THEREOF” (Genentech, Inc., priority 2022, published 2024)
“And” between values parts separate entries of the source, which are not always exact repeats. Equal entries are not always repeated. Where two headings read alike, the source gives them in different places.

Key:
[1] = target: KRAS G12D (Homo sapiens (Human), UniProt P01116, G12D); assay: KRAS G12D LoEnz Biochemical Assay, BODIPY-GDP Exchange TR-FRET (SOS1-mediated nucleotide exchange); settings: read-out: KRas (G12D) GDP HTRF IC50
Chain of KRAS G12D (P01116-2 other isoform, or with tags, fused parts or gaps G12D): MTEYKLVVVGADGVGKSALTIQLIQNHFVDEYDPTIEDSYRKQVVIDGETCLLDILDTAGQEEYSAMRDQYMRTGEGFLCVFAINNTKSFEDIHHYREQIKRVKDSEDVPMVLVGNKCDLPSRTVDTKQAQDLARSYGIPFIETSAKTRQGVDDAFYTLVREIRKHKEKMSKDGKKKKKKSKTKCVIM

[2] = target: T1, KRAS WT (Homo sapiens (Human), UniProt P01116); assay: KRAS WT Biochemical Assay, BODIPY-GDP Exchange TR-FRET (Example 501; 3 nM KRAS WT, 3 nM SOS1, 60-minute incubation); settings: read-out: KRas(wt) GDP HTRF IC50
T1 sequence (P01116-2 other isoform, or with tags, fused parts or gaps): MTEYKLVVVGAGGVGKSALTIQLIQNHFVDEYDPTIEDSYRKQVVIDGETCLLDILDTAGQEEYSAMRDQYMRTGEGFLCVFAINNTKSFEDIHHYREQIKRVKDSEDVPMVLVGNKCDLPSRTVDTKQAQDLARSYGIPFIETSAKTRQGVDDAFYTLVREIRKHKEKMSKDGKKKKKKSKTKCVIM
How it was run: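 SOS1-mediated exchange assay: 3 nM biotin-KRAS WT with terbium-streptavidin, started with 3 nM SOS1 and 300 nM BODIPY-GDP, HEPES pH 7.5 with MgCl2. TR-FRET (520/490 nm) read after 60 min; normalized to DMSO and full-inhibition control, IC50 from 4-parameter Hill fit.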

[3] = target: T1, KRAS WT; assay: KRAS WT Biochemical Assay, BODIPY-GDP Exchange TR-FRET (Example 502; 0.06 nM KRAS WT, 15 nM GDP, 300 nM SOS1, 120-minute incubation); settings: read-out: KRas HTRF IC50
How it was run: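 IC50 from a 4-parameter Hill fit of percent inhibition, itself the TR-FRET 520/490 nm ratio scaled between DMSO and a fully inhibiting control. Reaction: 300 nM SOS1 and 300 nM BODIPY-GDP added to preformed 0.06 nM KRAS WT/15 nM GDP/Tb-streptavidin complex; 120 min incubation; pH 7.5 HEPES, MgCl2, DTT.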

[4] = test system: PC-9 (KRAS wild type human lung adenocarcinoma cell line); assay: KRAS 3D-Cell Proliferation Assay, PC-9 (CellTiter-Glo 3D, 7 days); format: cell-based; settings: PC-9 3D culture, read-out: Prolif PC9 3D ATP IC50
Method: Example 503: KRAS 3D-Cell Proliferation Assays. Cellular potencies of compounds are assessed by evaluating inhibition of proliferation in 3D cultures of homozygous mutant KRAS G12D human pancreatic cell lines (AsPC-1 and HPAC) as compared to a KRAS wild type human lung adenocarcinoma cell line (PC-9 and/or H1975). Cells are seeded into 384-well black round-bottom, ultra-low attachment assay plates in 50 uL cell growth medium (RPMI-1640 with 10% fetal bovine serum and 2 mM L-glutamine). After overnight incubation at 37° C. and 5% CO2, compounds solubilized in DMSO are added as dilution series to the wells in a total volume of 150 nL (0.3% DMSO final). The cells are incubated for 7 days at 37° C. and 5% CO2. Cell proliferation is quantitated by addition of 40 uL/well of CellTiter-GloO 3D (Promega), and the well contents are mixed 20× at high speed using liquid handling automation workstation (Bravo with 384-well head) and centrifuged at 1500 rpm for 2 minutes to eliminate bubbles. This reagent in combination with mechanical disruption releases the cellular ATP to promote activity in a luciferase-based enzyme/substrate chemiluminescent detection system. After a 30-minute incubation under ambient conditions with shaking and an additional 10 minutes without shaking, the luminescence is read on a plate reader (e.g. EnVision [PerkinElmer]). The results are normalized to percent inhibition based on the following control samples: DMSO (0% inhibition) and 1 uM staurosporine (100% inhibition). The normalized luminescence results are plotted against compound concentration, and the data are fit to a 4-parameter Hill equation to determine the IC50 values.

SMILES	IC50 [1]	IC50 [2]	IC50 [3]	IC50 ([4]; Homo sapiens, PC-9, 168 h)	IC50 [4]
C#Cc1cccc2cc(O)cc(-c3nc4c5c(nc(OC[C@@]67CCCN6C[C@H](F)C7)nc5c3F)N3C[C@H]5CC[C@H](N5)[C@H]3CO4)c12 [Compound 3, 5-ethynyl-4-((5aS,6S,9R)-1-fluoro-12-(((2R,7aS)-2-fluorotetrahydro-1H-pyrrolizin-7a(5H)-yl)methoxy)-5a,6,7,8,9,10-hexahydro-5H-4-oxa-3,10a,11,13,14-pentaaza-6,9-methanonaphtho[1,8-ab]heptalen-2-yl)naphthalen-2-ol]	0.058 nM	0.517 nM	0.757 nM	20000 nM	–
Cc1cc(N)cc(-c2nc3c4c(nc(OC[C@@]56CCCN5C[C@H](F)C6)nc4c2F)N2C[C@H]4CC[C@H](N4)[C@H]2[C@H](C)O3)c1C(F)(F)F [Compound 16, 3-((5S,5aS,6S,9R)-1-fluoro-12-(((2R,7aS)-2-fluorotetrahydro-1H-pyrrolizin-7a(5H)-yl)methoxy)-5-methyl-5a,6,7,8,9,10-hexahydro-5H-4-oxa-3,10a,11,13,14-pentaaza-6,9-methanonaphtho[1,8-ab]heptalen-2-yl)-5-methyl-4-(trifluoromethyl)aniline]	0.138 nM	0.668 nM	0.484 nM	20000 nM	–
C[C@@H]1Oc2nc(-c3nc(N)cc4ccccc34)c(F)c3nc(OC[C@@]45CCCN4C[C@H](F)C5)nc(c23)N2C[C@H]3CC[C@H](N3)[C@@H]12 [Compound 41, 1-((5S,5aS,6S,9R)-1-fluoro-12-(((2R,7aS)-2-fluorotetrahydro-1H-pyrrolizin-7a(5H)-yl)methoxy)-5-methyl-5a,6,7,8,9,10-hexahydro-5H-4-oxa-3,10a,11,13,14-pentaaza-6,9-methanonaphtho[1,8-ab]heptalen-2-yl)isoquinolin-3-amine]	6.35 nM	296 nM	–	20000 nM	–
Cc1cc(N)nc(-c2nc3c4c(nc(OC[C@@]56CCCN5C[C@H](F)C6)nc4c2F)N2C[C@H]4CC[C@H](N4)[C@H]2[C@H](C)O3)c1C(F)(F)F [Compound 43, 6-((5S,5aS,6S,9R)-1-Fluoro-12-(((2R,7aS)-2-fluorotetrahydro-1H-pyrrolizin-7a(5H)-yl)methoxy)-5-methyl-5a,6,7,8,9,10-hexahydro-5H-4-oxa-3,10a,11,13,14-pentaaza-6,9-methanonaphtho[1,8-ab]heptalen-2-yl)-4-methyl-5-(trifluoromethyl)pyridin-2-amine]	0.598 nM	16.6 nM	–	20000 nM	–
Cc1cc(N)nc(-c2nc3c4c(nc(OC[C@@]56CCCN5C[C@H](F)C6)nc4c2F)N2C[C@H]4CC[C@H](N4)[C@H]2CO3)c1C(F)(F)F [Compound 44, 6-((5aS,6S,9R)-1-fluoro-12-(((2R,7aS)-2-fluorotetrahydro-1H-pyrrolizin-7a(5H)-yl)methoxy)-5a,6,7,8,9,10-hexahydro-5H-4-oxa-3,10a,11,13,14-pentaaza-6,9-methanonaphtho[1,8-ab]heptalen-2-yl)-4-methyl-5-(trifluoromethyl)pyridin-2-amine]	0.68 nM	59 nM	–	20000 nM	–
C#Cc1cccc2cc(O)cc(-c3nc4c5c(ncnc5c3F)N3C[C@H]5CC[C@H](N5)[C@H]3[C@H](C)O4)c12 [Compound 54, 5-ethynyl-4-((5S,5aS,6S,9R)-1-fluoro-5-methyl-5a,6,7,8,9,10-hexahydro-5H-4-oxa-3,10a,11,13,14-pentaaza-6,9-methanonaphtho[1,8-ab]heptalen-2-yl)naphthalen-2-ol]	17.8 nM	1980 nM	–	20000 nM	–
C#Cc1c(F)ccc2cccc(-c3nc4c5c(ncnc5c3F)N3C[C@H]5CC[C@H](N5)[C@H]3[C@H](C)O4)c12 [Compound 56, (5S,5aS,6S,9R)-2-(8-ethynyl-7-fluoronaphthalen-1-yl)-1-fluoro-5-methyl-5a,6,7,8,9,10-hexahydro-5H-4-oxa-3,10a,11,13,14-pentaaza-6,9-methanonaphtho[1,8-ab]heptalene]	942 nM	46500 nM	–	20000 nM	–
C[C@@H]1Oc2nc(-c3cc(N)c(F)cc3C(F)(F)F)c(F)c3nc(OC[C@]45CCN4CC(F)(F)C5)nc(c23)N2C[C@H]3CC[C@H](N3)[C@@H]12 [Compound 71, 5-((5S,5aS,6S,9R)-12-(((R)-3,3-Difluoro-1-azabicyclo[3.2.0]heptan-5-yl)methoxy)-1-fluoro-5-methyl-5a,6,7,8,9,10-hexahydro-5H-4-oxa-3,10a,11,13,14-pentaaza-6,9-methanonaphtho[1,8-ab]heptalen-2-yl)-2-fluoro-4-(trifluoromethyl)aniline]	3.51 nM	–	313 nM	20000 nM	–
C[C@@H]1Oc2nc(-c3cnccc3C(F)(F)F)c(F)c3nc(OC[C@]45CCN4CC(F)(F)C5)nc(c23)N2C[C@H]3CC[C@H](N3)[C@@H]12 [Compound 78, (5S,5aS,6S,9R)-12-(((R)-3,3-Difluoro-1-azabicyclo[3.2.0]heptan-5-yl)methoxy)-1-fluoro-5-methyl-2-(4-(trifluoromethyl)pyridin-3-yl)-5a,6,7,8,9,10-hexahydro-5H-4-oxa-3,10a,11,13,14-pentaaza-6,9-methanonaphtho[1,8-ab]heptalene]	867 nM	–	200000 nM	20000 nM	–
C#Cc1c(F)ccc2cc(O)cc(-c3nc4c5c(nc(OC[C@@]67CCCN6C[C@H](F)C7)nc5c3F)N3C[C@H]5CC[C@H](N5)[C@H]3CO4)c12 [Compound 81, 5-Ethynyl-6-fluoro-4-((5aS,6S,9R)-1-fluoro-12-(((2R,7aS)-2-fluorotetrahydro-1H-pyrrolizin-7a(5H)-yl)methoxy)-5a,6,7,8,9,10-hexahydro-5H-4-oxa-3,10a,11,13,14-pentaaza-6,9-methanonaphtho[1,8-ab]heptalen-2-yl)naphthalen-2-ol]	0.085 nM	–	0.448 nM	20000 nM	–
C[C@@H]1Oc2nc(-c3nc(N)c(F)cc3C(F)(F)F)c(F)c3nc(OC[C@@]45CCCN4C[C@H](F)C5)nc(c23)N2C[C@H]3CC[C@H](N3)[C@@H]12 [Compound 84, 3-Fluoro-6-((5S,5aS,6S,9R)-1-fluoro-12-(((2R,7aS)-2-fluorotetrahydro-1H-pyrrolizin-7a(5H)-yl)methoxy)-5-methyl-5a,6,7,8,9,10-hexahydro-5H-4-oxa-3,10a,11,13,14-pentaaza-6,9-methanonaphtho[1,8-ab]heptalen-2-yl)-5-(trifluoromethyl)pyridin-2-amine]	24.9 nM	–	4310 nM	20000 nM	–
C[C@@H]1Oc2nc(-c3nc(N)ccc3C(F)(F)F)c(F)c3nc(OC[C@@]45CCCN4C[C@H](F)C5)nc(c23)N2C[C@H]3CC[C@H](N3)[C@@H]12 [Compound 85, 6-((5S,5aS,6S,9R)-1-fluoro-12-(((2R,7aS)-2-fluorotetrahydro-1H-pyrrolizin-7a(5H)-yl)methoxy)-5-methyl-5a,6,7,8,9,10-hexahydro-5H-4-oxa-3,10a-11,13,14-pentaaza-6,9-methanonaphtho[1,8-ab]heptalen-2-yl)-5-(trifluoromethyl)pyridin-2-amine]	3.28 nM	–	678 nM	20000 nM	–
C[C@@H]1Oc2nc(-c3nc(N)c(F)cc3C(F)(F)F)c(F)c3nc(OC[C@]45CCN4CC(F)(F)C5)nc(c23)N2C[C@H]3CC[C@H](N3)[C@@H]12 [Compound 87, 6-((5S,5aS,6S,9R)-12-(((R)-3,3-Difluoro-1-azabicyclo[3.2.0]heptan-5-yl)methoxy)-1-fluoro-5-methyl-5a,6,7,8,9,10-hexahydro-5H-4-oxa-3,10a,11,13,14-pentaaza-6,9-methanonaphtho[1,8-ab]heptalen-2-yl)-3-fluoro-5-(trifluoromethyl)pyridin-2-amine]	68.9 nM	–	16100 nM	20000 nM	–
Cc1cc(N)c(F)c(-c2nc3c4c(nc(OC[C@@]56CCN5CC(F)(F)C6)nc4c2F)N2C[C@H]4CC[C@H](N4)[C@H]2[C@H](C)O3)c1C(F)(F)F [Compound 92, 3-((5S,5aS,6S,9R)-12-(((S)-3,3-Difluoro-1-azabicyclo[3.2.0]heptan-5-yl)methoxy)-1-fluoro-5-methyl-5a,6,7,8,9,10-hexahydro-5H-4-oxa-3,10a,11,13,14-pentaaza-6,9-methanonaphtho[1,8-ab]heptalen-2-yl)-2-fluoro-5-methyl-4-(trifluoromethyl)aniline]	0.76 nM and 1.01 nM	–	34.9 nM and 148 nM	–	8130 nM
